The source of these data is patent US20240270809A1, “ORAL GLP RECEPTOR AGONISTS” (priority 2020, published 2024).

Broadly, the Emax is the greatest response seen or fitted, relative to the assay's reference. Broadly, the fraction remaining is the share of the starting amount still present when the sample was taken.

One data set has as its target T1, human GLP2 receptor (Homo sapiens, UniProt O95838).
T1 construct: expressed in transfected cells; host or cells: HEK cells, BacMam virus transduction
T1 sequence (O95838 1-553): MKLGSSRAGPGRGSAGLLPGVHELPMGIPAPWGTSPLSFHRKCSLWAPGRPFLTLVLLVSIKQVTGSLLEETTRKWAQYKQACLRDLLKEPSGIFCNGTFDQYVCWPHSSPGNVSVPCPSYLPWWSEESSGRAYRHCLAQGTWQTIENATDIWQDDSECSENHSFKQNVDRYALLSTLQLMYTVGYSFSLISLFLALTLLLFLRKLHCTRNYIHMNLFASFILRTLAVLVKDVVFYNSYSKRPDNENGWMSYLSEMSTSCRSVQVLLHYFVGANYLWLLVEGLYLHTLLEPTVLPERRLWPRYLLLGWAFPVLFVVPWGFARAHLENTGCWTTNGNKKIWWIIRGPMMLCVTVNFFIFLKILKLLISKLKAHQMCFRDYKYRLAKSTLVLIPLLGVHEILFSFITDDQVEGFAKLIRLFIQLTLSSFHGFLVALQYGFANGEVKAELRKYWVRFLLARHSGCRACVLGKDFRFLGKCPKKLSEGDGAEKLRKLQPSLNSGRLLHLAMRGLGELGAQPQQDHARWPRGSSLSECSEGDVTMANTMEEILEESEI
The data set is described as follows: cAMP accumulation assay, functional agonism of human GLP2 receptor. Format: cell-based. The conditions noted are these: HEK cells infected with human GLP2 receptor BacMam virus, HTRF cAMP; for Emax: HEK293, read-out: Human GLP-2R agonist cAMP Emax; for EC50: read-out: Human GLP-2R agonist cAMP pEC50 (converted). The essentials:
(§1)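 cAMP by HTRF in BacMam-transduced HEK cells (24 h infection, frozen stocks); 0.5 mM IBMX in HBSS, 45 min, 37° C.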
A general note: cAMP levels reflect the balance of adenylyl cyclase and phosphodiesterase activity.

For another data set, the target named is T2, human GLP1 receptor (Homo sapiens, UniProt P43220).
T2 construct: expressed in transfected cells; host or cells: HEK cells, BacMam virus transduction
The data set is described as follows: cAMP accumulation assay, functional agonism of human GLP1 receptor. Type of data set: cell-based. The note with it: HEK cells infected with human GLP1 receptor BacMam virus, HTRF cAMP; for Emax: HEK293, read-out: Human GLP-1R agonist cAMP Emax; for EC50: read-out: Human GLP-1R agonist cAMP pEC50 (converted). The essentials: as §1

For another data set, the target named is T3, mouse GLP2 receptor (Mus musculus, UniProt Q5IXF8).
T3 construct: expressed in transfected cells; host or cells: HEK cells, transient transfection with GeneJuice
T3 sequence (Q5IXF8 1-512): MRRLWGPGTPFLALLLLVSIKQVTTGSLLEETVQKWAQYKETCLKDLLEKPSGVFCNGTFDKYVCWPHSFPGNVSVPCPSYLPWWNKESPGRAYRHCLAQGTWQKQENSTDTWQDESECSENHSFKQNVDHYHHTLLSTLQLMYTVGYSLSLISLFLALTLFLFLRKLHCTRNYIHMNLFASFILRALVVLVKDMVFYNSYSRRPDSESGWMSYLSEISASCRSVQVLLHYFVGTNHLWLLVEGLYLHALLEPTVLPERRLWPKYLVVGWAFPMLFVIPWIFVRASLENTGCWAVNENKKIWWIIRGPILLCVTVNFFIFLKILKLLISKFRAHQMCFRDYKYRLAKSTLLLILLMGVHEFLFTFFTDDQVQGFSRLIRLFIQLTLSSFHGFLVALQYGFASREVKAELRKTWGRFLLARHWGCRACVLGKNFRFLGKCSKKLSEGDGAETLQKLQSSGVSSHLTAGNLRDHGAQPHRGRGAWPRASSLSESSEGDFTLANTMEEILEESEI
Kind of data set: cAMP accumulation assay, functional agonism of mouse GLP2 receptor. The note with it: HEK cells transiently transfected with mouse GLP2 receptor, HTRF cAMP; for Emax: HEK293, read-out: Mouse GLP-2R agonist cAMP Emax; for EC50: read-out: Mouse GLP-2R agonist cAMP pEC50 (converted). Format: cell-based. Summed up: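 pEC50 values come from four-parameter fits of HTRF cAMP signal, read after lysis and 1 h RT incubation. Compounds were incubated 45 min at 37 °C with previously frozen, transiently transfected HEK cells (8000/well) in HBSS containing 0.5 mM IBMX.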

For another data set, the target named is T4, mouse GLP1 receptor (Mus musculus, UniProt O35659).
T4 construct: expressed in transfected cells; host or cells: HEK cells, transient transfection with GeneJuice
T4 sequence (O35659 22-463): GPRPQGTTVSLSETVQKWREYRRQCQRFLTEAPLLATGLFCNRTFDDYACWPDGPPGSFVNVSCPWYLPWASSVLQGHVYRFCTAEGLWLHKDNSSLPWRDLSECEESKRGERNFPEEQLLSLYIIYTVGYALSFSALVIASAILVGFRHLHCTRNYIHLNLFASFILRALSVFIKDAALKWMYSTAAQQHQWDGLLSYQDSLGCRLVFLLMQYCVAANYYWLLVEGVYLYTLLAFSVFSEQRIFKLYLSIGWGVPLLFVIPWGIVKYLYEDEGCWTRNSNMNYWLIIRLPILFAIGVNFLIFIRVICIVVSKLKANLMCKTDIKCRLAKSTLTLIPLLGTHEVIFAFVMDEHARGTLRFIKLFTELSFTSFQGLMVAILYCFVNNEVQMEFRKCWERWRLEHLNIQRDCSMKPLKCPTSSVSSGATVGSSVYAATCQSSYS
Kind of data set: cAMP accumulation assay, functional agonism of mouse GLP1 receptor. Format: cell-based. The conditions noted are these: HEK cells transiently transfected with mouse GLP1 receptor, HTRF cAMP.

Data set [1] can be described thus: Stability of peptides in Fasted-State Simulated Intestinal Fluid (FaSSIF). Type of data set: in vitro ADME. The conditions noted are these: FaSSIF with 10 mg/ml pancreatin; t=30 mins, 37° C., pH 6.5, 10 mg/ml pancreatin.

Positions of bridges follow the written chain, without caps; N, C: chain ends. Non-standard residues stand in square brackets, D forms with d. Residues, ends and D or L forms follow the SMILES beside them. *: point of attachment. Malonyl(2,2-Me2,histaminyl) = CC(C)(C(=O)NCCc1cnc[nH]1)C(=O)*; Ala(1H-tetrazol-5-yl) = N[C@@H](Cc1nnn[nH]1)C(=O)O; Nle = CCCC[C@H](N)C(=O)O; Aib = CC(C)(N)C(=O)O

T2 sequence (P43220 24-463): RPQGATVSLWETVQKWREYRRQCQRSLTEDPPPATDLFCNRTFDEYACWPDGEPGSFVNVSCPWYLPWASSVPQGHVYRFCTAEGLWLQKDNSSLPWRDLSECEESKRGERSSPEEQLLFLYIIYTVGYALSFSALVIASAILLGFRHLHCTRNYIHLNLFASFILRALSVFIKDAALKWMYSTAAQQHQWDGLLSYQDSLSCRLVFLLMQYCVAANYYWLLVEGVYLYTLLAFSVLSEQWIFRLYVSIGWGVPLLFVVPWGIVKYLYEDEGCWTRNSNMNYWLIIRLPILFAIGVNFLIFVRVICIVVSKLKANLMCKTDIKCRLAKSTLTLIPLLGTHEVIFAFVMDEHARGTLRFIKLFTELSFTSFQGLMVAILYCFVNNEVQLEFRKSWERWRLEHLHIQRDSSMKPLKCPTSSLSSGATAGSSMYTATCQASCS
Experimental for mouse GLP1 receptor: CAMP production upon agonist stimulation of mouse GLP2 or GLP1 receptors was assessed utilizing HiRange cAMP kit (Cisbio). In brief, HEK cells were transiently transfected for 24 hours with cDNA using GeneJuice Transfection reagent (EMD Millipore) and frozen at −80° C. for later use in the assay. […] Cells were prepared in the assay buffer (HBSS (Lonza) supplemented with 0.5 mM IBMX (Tocris)). After 45 min incubation at 37° C., the reaction was stopped by addition of the HTRF detection reagents in the lysis buffer provided in the kit. Following 1-hour incubation at RT, plates were read on Pherastar FS (BMG Labtech, Inc.) using standard HTRF settings. Dotmatics Studies software was used for calculation of pEC50 values by fitting data to a four-parameter concentration response curve.

On to `CCCC[C@H](NC(=O)[C@H](CCC(=O)O)NC(=O)[C@H](CC(=O)O)NC(=O)[C@H](CO)NC(=O)[C@H](Cc1ccccc1)NC(=O)[C@H](CO)NC(=O)CNC(=O)[C@H](CC(=O)O)NC(=O)C(C)(C)NC(=O)[C@@H](N)Cc1c[nH]cn1)C(=O)N[C@H](Cc1ccccc1)C(=O)N[C@H](C(=O)N[C@H](C(=O)N[C@@H](CC(C)C)C(=O)N[C@@H](CC(=O)O)C(=O)N[C@H]1CC(=O)NCCCC[C@@H](C(=O)N[C@@H](CC(=O)O)C(=O)N[C@@H](Cc2ccccc2)C(=O)N[C@H](C(=O)N[C@@H](CC(N)=O)C(=O)N[C@@H](Cc2c[nH]c3ccccc23)C(=O)N[C@@H](CC(C)C)C(=O)N[C@H](C(=O)N[C@@H](CCC(N)=O)C(=O)N[C@H](C(=O)N[C@@H](CCCCN)C(=O)N[C@H](C(=O)N[C@H](C(=O)N[C@@H](CC(=O)O)C(N)=O)[C@@H](C)O)[C@@H](C)CC)[C@@H](C)O)[C@@H](C)CC)[C@@H](C)CC)NC(=O)[C@H](C)NC(=O)[C@H](C)NC(=O)[C@H](CCCCN)NC1=O)[C@@H](C)CC)[C@@H](C)O` [Example 92] (H-H[Aib]DGSFSDE[Nle][dF]TILDDKAAKDFINWLIQTKITD-NH2; lactam 16-20; N-terminus and C-terminus assumed), for which the Emax on human GLP2 receptor amounted to 99.3%; at human GLP1 receptor it was 96.5%; on mouse GLP2 receptor, 98.9%; at mouse GLP1 receptor (HEK293, read-out: Mouse GLP-1R agonist cAMP Emax) it was 94.8%. The EC50 on human GLP2 receptor was 0.002 nM; on human GLP1 receptor, 10 nM; on mouse GLP2 receptor, 0.0126 nM; at mouse GLP1 receptor (read-out: Mouse GLP-1R agonist cAMP pEC50 (converted)) it was 10 nM.
With `CCCC[C@@H]1NC(=O)[C@H](CCC(=O)O)NC(=O)[C@@H](NC(=O)[C@H](CO)NC(=O)[C@H](Cc2ccccc2)NC(=O)[C@H](CO)NC(=O)CNC(=O)[C@H](Cc2nn[nH]n2)NC(=O)C(C)(C)C(=O)NCCc2c[nH]cn2)CCCCNC(=O)C[C@@H](C(=O)N[C@H](C(=O)N[C@@H](CC(C)C)C(=O)N[C@@H](CC(=O)O)C(=O)N[C@H]2CCC(=O)NCCCC[C@@H](C(=O)N[C@@H](CC(=O)O)C(=O)N[C@@H](Cc3ccccc3)C(=O)N[C@H](C(=O)N[C@@H](CC(N)=O)C(=O)N[C@@H](Cc3c[nH]c4ccccc34)C(=O)N[C@@H](CC(C)C)C(=O)N[C@H](C(=O)N[C@@H](CCC(N)=O)C(=O)N[C@H]3CCC(=O)NCCCC[C@@H](C(N)=O)NC(=O)[C@H]([C@@H](C)O)NC(=O)[C@H]([C@@H](C)CC)NC(=O)[C@H](CCCCN)NC3=O)[C@@H](C)CC)[C@@H](C)CC)NC(=O)[C@H](C)NC(=O)[C@H](C)NC(=O)[C@H](CCCCN)NC2=O)[C@@H](C)CC)NC(=O)[C@@H](Cc2ccccc2)NC1=O` [Example 22] ({Malonyl(2,2-Me2,histaminyl)}-[Ala(1H-tetrazol-5-yl)]GSFSKE[Nle][dF]DILDEKAAKDFINWLIQEKITK-NH2; lactam 6-10, 14-18, 27-31 (inferred); C-terminus assumed), the values for the Emax on human GLP2 receptor, on human GLP1 receptor and at mouse GLP2 receptor were 104%, 92.7% and 94.5%, respectively. The values for the EC50 at human GLP2 receptor, at human GLP1 receptor and at mouse GLP2 receptor were 0.00794 nM, 0.398 nM and 1.58 nM, respectively. In data set [1], the share remaining at 0.5 h was 6.8%.
